Laboratory results from patent US20110190249A1, “THERAPEUTIC METHODS AND USES OF SAPOGENINS AND THEIR DERIVATIVES” (PHYTOPHARM PLC, priority 2002, published 2011).

Assays:
m3 receptor = m3 receptor density in CHO-β2/m3 co-transfected cell line; assay type: cell-based; details: day 5
Text: (§1) The effects of epismilagenin cathylate, sarsasapogenin cathylate, episarsasapogenin cathylate, episarsasapogenin succinate, epismilagenin acetate and sarsasapogenin on the expression of muscarinic acetylcholine receptor (m) in CHO cells or β2 and m3 receptors in CHO cells transfected with either a vector for the m receptor or co-transfected with the vector for β2 and m3 receptors were investigated.
(§2) The results are illustrated in Table 1 below and in FIG. 1 of the drawings. Over the culturing period of CHO cells transfected with a vector for the m receptor, treatment with epismilagenin cathylate, sarsasapogenin cathylate, episarsasapogenin cathylate, episarsasapogenin succinate and sarsasapogenin each prevents the decrease in m receptor number.

β2 adrenoceptor = β2 adrenoceptor density in CHO-β2/m3 co-transfected cell line; assay type: cell-based; details: day 5
Text: as §1, §2

CC(=O)OC1CCC2(C)C(CCC3C2CCC2(C)C3CC3OC4(CCC(C)CO4)C(C)C32)C1 (centres unmarked) [epismilagenin acetate]
density of m3 receptors (m3 receptor): did not significantly alter
decrease in β2 adrenoceptors (density) (β2 adrenoceptor): significantly prevented the decrease
